Measurements as given in ChEMBL document CHEMBL1275470, “Susceptibility testing and molecular classification of Paecilomyces spp” (2008).
≈ marks a conversion by molar mass, not a printed value. Starred links: 1 amine or outer side, 2 acyl side, 3 side chain; linkers in the order of their positions; H or OH if unused. Positions of bridges follow the written chain, without caps; N, C: chain ends. Non-standard residues stand in square brackets, D forms with d. Residues, ends and D or L forms follow the SMILES beside them. *: point of attachment. hTyr(3S-OH,4S-OH,3'-OSO3H) = N[C@H](C(=O)O)[C@H](O)[C@@H](O)c1ccc(O)c(OS(=O)(=O)O)c1; pTerphenylCO(4''-OnC5H11) = CCCCCOc1ccc(-c2ccc(-c3ccc(C(=O)*)cc3)cc2)cc1; Orn(4R-OH,5R-OH) = O=C([C@H](C[C@@H](O)[C@@H](O)N[*:3])N[*:1])[*:2]; hTyr(3S-OH,4S-OH) = N[C@H](C(=O)O)[C@H](O)[C@@H](O)c1ccc(O)cc1; Pro(3S-OH,4S-Me) = C[C@H]1CN[C@H](C(=O)O)[C@H]1O; X1 = CCCCCOc1ccc(-c2cc(-c3ccc(C(=O)*)cc3)no2)cc1; Gln(3R-OH) = NC(=O)C[C@@H](O)[C@H](N)C(=O)O; Hyp = O=C(O)[C@@H]1C[C@@H](O)CN1

Experiments:
Paecilomyces variotii = test: Antimicrobial activity against Paecilomyces variotii by microdilution method; type: functional
Paecilomyces lilacinus = test: Antimicrobial activity against Paecilomyces lilacinus by microdilution method; type: functional; settings: Purpureocillium lilacinum

| Compound | MIC (Paecilomyces variotii) [µg/mL] | MIC (Paecilomyces lilacinus) [µg/mL] |
| --- | --- | --- |
| CCCCCOc1ccc(-c2ccc(-c3ccc(C(=O)N[C@H]4C[C@@H](O)[C@@H](O)NC(=O)[C@@H]5[C@@H](O)[C@@H](C)CN5C(=O)[C@H]([C@@H](C)O)NC(=O)[C@H]([C@H](O)[C@@H](O)c5ccc(O)cc5)NC(=O)[C@@H]5C[C@@H](O)CN5C(=O)[C@H]([C@@H](C)O)NC4=O)cc3)cc2)cc1 [ANIDULAFUNGIN] ({pTerphenylCO(4''-OnC5H11)}-[Orn(4R-OH,5R-OH)]T[Hyp][hTyr(3S-OH,4S-OH)]T[Pro(3S-OH,4S-Me)]; lactam 1-C) | 0.016 (≈ 0.014 µM) | 27.1 (≈ 23.8 µM) |
| CC[C@@H]([C@H](C)O)n1ncn(-c2ccc(N3CCN(c4ccc(OC[C@@H]5CO[C@@](Cn6cncn6)(c6ccc(F)cc6F)C5)cc4)CC3)cc2)c1=O [POSACONAZOLE] | 0.04 (≈ 0.0571 µM) | 0.28 (≈ 0.4 µM) |
| C[C@@H](c1nc(-c2ccc(C#N)cc2)cs1)[C@](O)(Cn1cncn1)c1ccc(F)cc1F [RAVUCONAZOLE] | 4.89 (≈ 11.2 µM) | 0.73 (≈ 1.67 µM) |
| C[C@@H](c1ncncc1F)[C@](O)(Cn1cncn1)c1ccc(F)cc1F [VORICONAZOLE] | 4.18 (≈ 12 µM) | 0.45 (≈ 1.29 µM) |

Next, values leading:

| MIC (Paecilomyces variotii) [µg/mL] | MIC (Paecilomyces lilacinus) [µg/mL] | Compound |
| --- | --- | --- |
| 0.04 (≈ 0.0433 µM) | 29.6 (≈ 32 µM) | C[C@@H]1[C@H](O)[C@@H](C)/C=C/C=C/C=C/C=C/C=C/C=C/C=C/[C@H](O[C@@H]2O[C@H](C)[C@@H](O)[C@H](N)[C@@H]2O)C[C@@H]2O[C@](O)(C[C@@H](O)C[C@@H](O)[C@H](O)CC[C@@H](O)C[C@@H](O)CC(=O)O[C@H]1C)C[C@H](O)[C@H]2C(=O)O [AMPHOTERICIN B] |
| 0.44 (≈ 0.402 µM) | 27.9 (≈ 25.5 µM) | CC[C@H](C)C[C@H](C)CCCCCCCCC(=O)N[C@H]1C[C@@H](O)[C@@H](NCCN)NC(=O)[C@@H]2[C@@H](O)CCN2C(=O)[C@H]([C@H](O)CCN)NC(=O)[C@H]([C@H](O)[C@@H](O)c2ccc(O)cc2)NC(=O)[C@@H]2C[C@@H](O)CN2C(=O)[C@H]([C@@H](C)O)NC1=O [CASPOFUNGIN] |
| 0.06 (≈ 0.085 µM) | 13.4 (≈ 19 µM) | CCC(C)n1ncn(-c2ccc(N3CCN(c4ccc(OCC5COC(Cn6cncn6)(c6ccc(Cl)cc6Cl)O5)cc4)CC3)cc2)c1=O (stereo not drawn) [ITRACONAZOLE] |
| 0.018 (≈ 0.0142 µM) | 25.6 (≈ 20.2 µM) | CCCCCOc1ccc(-c2cc(-c3ccc(C(=O)N[C@H]4C[C@@H](O)[C@@H](O)NC(=O)[C@@H]5[C@@H](O)[C@@H](C)CN5C(=O)[C@H]([C@H](O)CC(N)=O)NC(=O)[C@H]([C@H](O)[C@@H](O)c5ccc(O)c(OS(=O)(=O)O)c5)NC(=O)[C@@H]5C[C@@H](O)CN5C(=O)[C@H]([C@@H](C)O)NC4=O)cc3)no2)cc1 [MICAFUNGIN] (X1-[Orn(4R-OH,5R-OH)]T[Hyp][hTyr(3S-OH,4S-OH,3'-OSO3H)][Gln(3R-OH)][Pro(3S-OH,4S-Me)]; lactam 1-C) |
| 1.53 (≈ 5.25 µM) | 0.51 (≈ 1.75 µM) | CN(C/C=C/C#CC(C)(C)C)Cc1cccc2ccccc12 [TERBINAFINE] |
